# Data published in patent US20080045582A1, “ENA-78 Gene Polymorphisms and Protein Concentrations as Diagnostic and Prognostic Tools” (priority 2006, published 2008).
# What was measured:
# HUVECs = assay: HUVEC viability, trypan blue cell staining; type: cell-based, human; conditions: 24 hours of treatment, any dose of AT from 1 uM to 50 uM, FIG. 13
# Procedure: Human umbilical vein endothelial cells (HUVECs) (Clonetics Cell Systems; Cambrex Bio Science Walkersville, Inc., Walkersville, USA) were cultured as previously described. Briefly, HUVECs between passes three and four were seeded at a density of 2.5×10^4 cells per cm^2 and cultured to 80% confluence with endothelial cell growth-supplemented medium (EGM-2-endothelial cell medium-2; Cambrex Bio Science Walkersville, Inc.). Once confluent, media was changed to serum free endothelial basal media (EBM-2-endothelial cell medium-2; Cambrex Bio Science Walkersville, Inc.) for 24 hours prior to treatment, in which EBM-2 media supplemented to a 2% FBS concentration was used.
# Treatments consisted of atorvastatin calcium (AT; LKT Laboratories Inc., St. Paul, USA) 1-50 μM dissolved in dimethyl sulfoxide (DMSO), IL-1beta, mevalonate, farnesyl pyrophosphate (FPP), and geranylgeranyl pyrophosphate (GGPP) were purchased from Sigma-Aldrich (St. Louis, Mo.), with concentrations of 2 ng/ml, 250 μM, 5 μM, and 5 μM used respectively. All were dissolved in molecular grade water. All final DMSO concentrations were less then 0.1%.
# Cell viability was assessed by treating HUVECs with AT 1 μM, 5 μM, 10 μM, 25 μM, and 50 μM using trypan blue cell staining. […]
# G-CSF = G-CSF production by non-stimulated human umbilical vein endothelial cells, multiplex protein measurement; type: cell-based; conditions: atorvastatin 1-50 μM, 24 hours, FIG. 12
# Procedure: (§1) Human umbilical vein endothelial cells were obtained (Clonetics Cell Systems; Cambrex Bio Science Walkersville, Inc., Walkersville, Md.). Approximately 5×10^5 viable cells were seeded in endothelial cell growth-supplemented basal medium (EGM-2-endothelial cell medium-2; Cambrex Bio Science Walkersville, Inc.) and maintained at 37° C. under a 5% carbon dioxide atmosphere per manufacturer's protocol. The culture medium was changed 24 hours after seeding and every 48 hours thereafter until confluence. Cells were then treated with trypsin, seeded in a 48-well culture dish, and incubated under the conditions previously described. Cells used in this Example were from the third passage. […]
# (§2) The culture-conditioned media protein content of epithelial neutrophil-activating peptide-78 (ENA-78), interleukin-8, (IL-8), monocyte chemotactic protein-1 (MCP-1), interleukin-6 (IL-6), interleukin-10 (IL-10), fibroblast growth factor (FGF), and granulocyte colony-stimulating factor (G-CSF) were measured by means of flow-based immunofluorescence multiplex detection (Fluorokine MAP Human Cytokine Panel; R&D Systems Inc., Minneapolis, Minn.) with the Luminex 100 IS platform (Luminex Corp., Austin, Tex.). […]
# IL-6 = IL-6 production by non-stimulated human umbilical vein endothelial cells, multiplex protein measurement; type: cell-based; conditions: increasing concentration of atorvastatin (1-50 μM), 24 hours, FIG. 11A
# Procedure: as §1, §2
# FGF = FGF production by non-stimulated human umbilical vein endothelial cells, multiplex protein measurement; type: cell-based; conditions: atorvastatin 1-50 μM, 24 hours, FIG. 12
# Procedure: as §1, §2
# IL-8 = IL-8 production by non-stimulated human umbilical vein endothelial cells, multiplex protein measurement; type: cell-based
# Procedure: (§3) Human umbilical vein endothelial cells were obtained (Clonetics Cell Systems; Cambrex Bio Science Walkersville, Inc., Walkersville, Md.). Approximately 5×10^5 viable cells were seeded in endothelial cell growth-supplemented basal medium (EGM-2-endothelial cell medium-2; Cambrex Bio Science Walkersville, Inc.) and maintained at 37° C. under a 5% carbon dioxide atmosphere per manufacturer's protocol. The culture medium was changed 24 hours after seeding and every 48 hours thereafter until confluence. Cells were then treated with trypsin, seeded in a 48-well culture dish, and incubated under the conditions previously described. Cells used in this Example were from the third passage.
# (§4) After cells reached 70-80% confluence in the culture dish, they were allowed to become quiescent in unsupplemented, serum-free medium for 24 hours before treatment and then placed in medium containing 2% fetal bovine serum. Atorvastatin (LKT Laboratories Inc., St. Paul, Minn.) was dissolved in dimethylsulfoxide (Sigma-Aldrich, St. Louis, Mo.). Cells were treated for 24 hours with atorvastatin 1-50 μM alone or with atorvastatin plus mevalonate 250 μM (Sigma-Aldrich). Controls were cells cultured without atorvastatin or atorvastatinmevalonate. […] All experiments were performed in duplicate.
# (§5) After treatment, culture-conditioned media were collected, divided into aliquots, and stored at −80° C. for no longer than 7 days until multiplex measurement of chemokines, cytokines, and angiogenic factors was performed.
# (§6) The culture-conditioned media protein content of epithelial neutrophil-activating peptide-78 (ENA-78), interleukin-8, (IL-8), monocyte chemotactic protein-1 (MCP-1), interleukin-6 (IL-6), interleukin-10 (IL-10), fibroblast growth factor (FGF), and granulocyte colony-stimulating factor (G-CSF) were measured by means of flow-based immunofluorescence multiplex detection (Fluorokine MAP Human Cytokine Panel; R&D Systems Inc., Minneapolis, Minn.) with the Luminex 100 IS platform (Luminex Corp., Austin, Tex.). Concentrations for each sample were normalized against milligrams of total protein by using a standard bicinchoninic acid protein assay (Pierce Biotechnology, Inc., Rockford, Ill.). Samples were assayed in duplicate.
# (§7) Standard curves of best fit for each analyte were generated by plotting the median fluorescence intensities of the analyte standards against their known concentrations by using Beadview multiplex data analysis software version 1 (Upstate, Charlottesville, Va.).
# Differences in biomolecular concentrations were compared by treatment group by applying one-way analysis of variance and a post-hoc Tukey's test as appropriate. The Jonckheere Terpstra test was performed to assess the trend for differences in biomolecular concentrations across concentrations of atorvastatin. A p value below 0.05 was considered to indicate a statistically significant difference. Statistical analyses were performed with SPSS software, version 11.5 (SPSS Inc., Chicago, Ill.).
# IL-10 = IL-10 production by non-stimulated human umbilical vein endothelial cells, multiplex protein measurement; type: cell-based; conditions: atorvastatin 1-50 μM, 24 hours, FIG. 11B
# Procedure: as §1, §2
# ENA-78 [1] = assay: IL-1beta-stimulated ENA-78 production from HUVECs, cytometric immunofluorescence; type: cell-based, human; conditions: for ENA-78 production reduced by, compared with IL-1beta-stimulated cells in the absence of AT: AT pre-treatment 2 h before IL-1beta
# Procedure: Human umbilical vein endothelial cells (HUVECs) (Clonetics Cell Systems; Cambrex Bio Science Walkersville, Inc., Walkersville, USA) were cultured as previously described. Briefly, HUVECs between passes three and four were seeded at a density of 2.5×10^4 cells per cm^2 and cultured to 80% confluence with endothelial cell growth-supplemented medium (EGM-2-endothelial cell medium-2; Cambrex Bio Science Walkersville, Inc.). Once confluent, media was changed to serum free endothelial basal media (EBM-2-endothelial cell medium-2; Cambrex Bio Science Walkersville, Inc.) for 24 hours prior to treatment, in which EBM-2 media supplemented to a 2% FBS concentration was used. Treatments consisted of atorvastatin calcium (AT; LKT Laboratories Inc., St. […] All were dissolved in molecular grade water. All final DMSO concentrations were less then 0.1%. […] In experiments investigating the impact of AT on IL-1beta-stimulated ENA-78 production, HUVECs were pre-treated with AT followed by IL-1beta stimulation two hours later. […] In a separate set of experiments, cells were cultured with IL-1beta and AT in the presence or absence of mevalonate, FPP, and GGPP to determine whether AT inhibition of ENA-78 production was dependent on HMG-CoA reductase inhibition and subsequent downstream pathways. Cell culture supernates for all experiments were stored at -20° C. until analysis, which was performed within seven days. ENA-78 concentrations were measured and normalized to total protein content in cell culture supernates using cytometric immunofluorescence as previously described. Ribonucleic acid (RNA) was isolated using a commercial kit (RNeasy mini kit, Qiagen Inc., Valencia, USA). Complementary deoxyribonucleic acid (cDNA) conversion was performed by high capacity cDNA reverse transcription (Applied Biosystems, Foster City, USA) per protocol using roughly 2 μg of total RNA. RNA quality was assessed by absorbance (Nanodrop, Nanodrop Technologies, Wilmington, USA). Real-time reverse-transcription PCR (RT-PCR) was done using primer and probe sets for CXCL5 normalized to a housekeeping gene, glyceraldehyde-3-phosphate dehydrogenase (GAPDH; Taqman Gene Expression Assays, Applied Biosystems Inc.). […] PCR for both CXCL5 and GAPDH was performed at the same time using the following conditions: 95° C. for 2 minutes; 35 cycles of 95° C. for 30 seconds, 59° C. for 30 seconds, and 72° C. for 30 seconds; followed by 7 minutes of elongation at 72° C. Statistical differences in normalized protein concentrations and gene expression levels were determined by one way ANOVA and post-hoc Tukey analysis. […] An independent t-test was used to compare treatment differences at the same time points in the dose range analysis. […] Statistical analyses were performed with SPSS software, version 11.5 (SPSS Inc., Chicago, USA).
# CXCL5 = CXCL5 gene expression in HUVECs, real-time RT-PCR normalized to GAPDH; type: cell-based, human
# Procedure: Human umbilical vein endothelial cells (HUVECs) (Clonetics Cell Systems; Cambrex Bio Science Walkersville, Inc., Walkersville, USA) were cultured as previously described. Briefly, HUVECs between passes three and four were seeded at a density of 2.5×10^4 cells per cm^2 and cultured to 80% confluence with endothelial cell growth-supplemented medium (EGM-2-endothelial cell medium-2; Cambrex Bio Science Walkersville, Inc.). Once confluent, media was changed to serum free endothelial basal media (EBM-2-endothelial cell medium-2; Cambrex Bio Science Walkersville, Inc.) for 24 hours prior to treatment, in which EBM-2 media supplemented to a 2% FBS concentration was used. Treatments consisted of atorvastatin calcium (AT; LKT Laboratories Inc., St. […] All were dissolved in molecular grade water. All final DMSO concentrations were less then 0.1%. […] In experiments investigating the impact of AT on IL-1beta-stimulated ENA-78 production, HUVECs were pre-treated with AT followed by IL-1beta stimulation two hours later. […] In a separate set of experiments, cells were cultured with IL-1beta and AT in the presence or absence of mevalonate, FPP, and GGPP to determine whether AT inhibition of ENA-78 production was dependent on HMG-CoA reductase inhibition and subsequent downstream pathways. Cell culture supernates for all experiments were stored at -20° C. until analysis, which was performed within seven days. ENA-78 concentrations were measured and normalized to total protein content in cell culture supernates using cytometric immunofluorescence as previously described. Ribonucleic acid (RNA) was isolated using a commercial kit (RNeasy mini kit, Qiagen Inc., Valencia, USA). […] RNA quality was assessed by absorbance (Nanodrop, Nanodrop Technologies, Wilmington, USA). […] Statistical differences in normalized protein concentrations and gene expression levels were determined by one way ANOVA and post-hoc Tukey analysis. […]
# MCP-1 = MCP-1 production by non-stimulated human umbilical vein endothelial cells, multiplex protein measurement; type: cell-based
# Procedure: as §3, §4, §5, §6, §7
# (§8) Differences in biomolecular concentrations were compared by treatment group by applying one-way analysis of variance and a post-hoc Tukey's test as appropriate. The Jonckheere Terpstra test was performed to assess the trend for differences in biomolecular concentrations across concentrations of atorvastatin. […]
# ENA-78 [2] = assay: ENA-78 production by non-stimulated human umbilical vein endothelial cells, multiplex protein measurement; type: cell-based; conditions: 24 hours
# Procedure: as §3, §4, §5, §6, §7, §8
smiles,measurement,setting,value
CC(C)c1c(C(=O)Nc2ccccc2)c(-c2ccccc2)c(-c2ccc(F)cc2)n1CC[C@@H](O)C[C@@H](O)CC(=O)O [atorvastatin],HUVEC viability compared with control,HUVECs,no significant differences
same,concentrations of G-CSF,G-CSF,did not change
same,graded reduction of IL-6 production,IL-6,29-83%
same,concentrations of FGF,FGF,did not change
same,IL-8 concentrations lowered by,"IL-8; 1st of the four atorvastatin groups (1-50 μM), 24 hours",26%
same,IL-8 concentrations lowered by,"IL-8; 2nd of the four atorvastatin groups (1-50 μM), 24 hours",72%
same,IL-8 concentrations lowered by,"IL-8; 3rd of the four atorvastatin groups (1-50 μM), 24 hours",83%
same,IL-8 concentrations lowered by,"IL-8; 4th of the four atorvastatin groups (1-50 μM), 24 hours",89%
same,minimum effective concentration giving significant reduction in IL-8 compared with control,"IL-8; 24 hours, FIG. 10B",5 µM
same,IL-8 production,"IL-8; atorvastatin 5 μM, 24 hours (control 551±69)",155±45 pg/mg protein
same,treatment effect on IL-10,IL-10,no treatment effect
same,"ENA-78 production reduced by, compared with IL-1beta-stimulated cells in the absence of AT","ENA-78 [1]; 1st of the five AT dose groups (1, 5, 10, 25, 50 μM)",38%
same,"ENA-78 production reduced by, compared with IL-1beta-stimulated cells in the absence of AT","ENA-78 [1]; 2nd of the five AT dose groups (1, 5, 10, 25, 50 μM)",70%
same,"ENA-78 production reduced by, compared with IL-1beta-stimulated cells in the absence of AT","ENA-78 [1]; 3rd of the five AT dose groups (1, 5, 10, 25, 50 μM)",78%
same,"ENA-78 production reduced by, compared with IL-1beta-stimulated cells in the absence of AT","ENA-78 [1]; 4th of the five AT dose groups (1, 5, 10, 25, 50 μM)",93%
same,"ENA-78 production reduced by, compared with IL-1beta-stimulated cells in the absence of AT","ENA-78 [1]; 5th of the five AT dose groups (1, 5, 10, 25, 50 μM)",99%
same,IL-1beta-stimulated ENA-78 production,ENA-78 [1]; AT at concentrations ≧25 uM,returned to baseline
same,IL-1beta-stimulated ENA-78 production,"ENA-78 [1]; IL-1beta and AT 10 uM, FIG. 16",1054 ± 349 pg/mg
same,time at which AT attenuation of ENA-78 production relative to IL-1beta was most pronounced,"ENA-78 [1]; time course 0, 4, 12, 24, 48 hours, FIG. 15",48 h
same,constitutive expression of CXCL5,"CXCL5; AT alone, 24 hours, FIG. 17",significantly lowered
same,CXCL5 expression compared to IL-1beta alone,CXCL5; pre-treated with 10 μM of AT followed by IL-1beta in two hours,no difference
same,MCP-1 concentrations vs control condition,MCP-1; concentrations of atorvastatin less than 50 μM,did not significantly differ
same,reduction in MCP-1,"MCP-1; highest concentration of atorvastatin (50 μM), 24 hours",83%
same,MCP-1 production,"MCP-1; highest concentration of atorvastatin (50 μM), 24 hours (control 4556±514)",782±105 pg/mg protein
same,reduction in ENA-78 production compared with untreated controls,"ENA-78 [2]; escalating concentrations of atorvastatin (10 μM to 50 μM), FIG. 10A",45-85%
same,ENA-78 production vs untreated control,ENA-78 [2]; lower concentrations of atorvastatin,not significantly altered
